Patent US9221796B2, “Selective NR2B antagonists” (BRISTOL-MYERS SQUIBB COMPANY, priority 2014, dated 2015)
Read-outs that look alike come from different tables or passages of the source.

Assays:
[1] = target: NR2B-subtype NMDA receptors (Rattus norvegicus (Rat), UniProt P35439+Q00960); test: Radioligand binding assay (3H Ro 25-6981 competition, forebrain membranes); conditions: 3H Ro 25-6981 (4 nM)
Summary of the method: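 Rat forebrain membranes competed against [3H]Ro 25-6981 for 1 hr at room temperature, then filtered onto PEI-treated GF/B plates and counted by scintillation. CPM converted to % inhibition, concentration-response curves fitted, Ki derived from at least two experiments.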

NR2B-subtype receptors = NR2B-subtype receptors (Mus musculus (Mouse), UniProt P35438+Q01097); test: Ex vivo occupancy assay; assay type: in vivo; conditions: mice, after i.v. dosing
Sequence of NR2B-subtype receptors (Q01097 27-1482, other chains not shown): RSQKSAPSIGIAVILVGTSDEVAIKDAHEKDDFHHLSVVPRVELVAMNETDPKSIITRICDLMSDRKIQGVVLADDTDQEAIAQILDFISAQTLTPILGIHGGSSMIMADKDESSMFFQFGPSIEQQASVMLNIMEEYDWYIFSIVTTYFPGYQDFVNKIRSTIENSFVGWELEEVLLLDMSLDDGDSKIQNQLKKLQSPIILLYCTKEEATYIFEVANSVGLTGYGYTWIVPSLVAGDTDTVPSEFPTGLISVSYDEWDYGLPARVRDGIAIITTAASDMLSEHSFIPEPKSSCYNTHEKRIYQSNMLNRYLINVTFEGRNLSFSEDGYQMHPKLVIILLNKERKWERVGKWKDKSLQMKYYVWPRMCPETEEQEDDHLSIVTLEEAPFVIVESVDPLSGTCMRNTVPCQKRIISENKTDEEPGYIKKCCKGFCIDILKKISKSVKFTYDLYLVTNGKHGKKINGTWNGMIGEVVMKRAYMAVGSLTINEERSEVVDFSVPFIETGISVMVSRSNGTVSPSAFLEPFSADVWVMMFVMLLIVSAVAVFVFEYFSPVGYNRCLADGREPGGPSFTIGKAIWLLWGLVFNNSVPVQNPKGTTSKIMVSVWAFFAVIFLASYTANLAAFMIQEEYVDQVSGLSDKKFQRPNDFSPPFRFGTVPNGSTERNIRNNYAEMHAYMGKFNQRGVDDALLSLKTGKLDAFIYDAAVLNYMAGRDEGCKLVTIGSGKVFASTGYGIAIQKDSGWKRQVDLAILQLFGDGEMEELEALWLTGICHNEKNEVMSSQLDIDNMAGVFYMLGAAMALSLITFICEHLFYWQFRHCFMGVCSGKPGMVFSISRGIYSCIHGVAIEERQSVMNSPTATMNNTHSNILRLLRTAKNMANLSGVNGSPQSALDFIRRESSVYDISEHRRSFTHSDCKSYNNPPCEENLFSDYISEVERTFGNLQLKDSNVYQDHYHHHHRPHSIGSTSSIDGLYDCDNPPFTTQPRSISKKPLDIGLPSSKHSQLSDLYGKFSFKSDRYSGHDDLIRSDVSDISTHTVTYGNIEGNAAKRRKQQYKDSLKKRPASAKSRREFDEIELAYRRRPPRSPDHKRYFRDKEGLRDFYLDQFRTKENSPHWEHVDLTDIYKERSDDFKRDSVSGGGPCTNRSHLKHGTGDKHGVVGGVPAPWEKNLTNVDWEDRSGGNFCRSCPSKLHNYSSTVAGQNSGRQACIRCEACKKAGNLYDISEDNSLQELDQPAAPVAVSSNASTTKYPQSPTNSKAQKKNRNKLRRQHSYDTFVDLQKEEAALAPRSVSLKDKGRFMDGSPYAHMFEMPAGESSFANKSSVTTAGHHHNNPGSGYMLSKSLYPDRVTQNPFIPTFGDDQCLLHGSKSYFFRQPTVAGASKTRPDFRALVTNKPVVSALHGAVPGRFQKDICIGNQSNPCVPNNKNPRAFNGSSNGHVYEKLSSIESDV
Protocol: 7-9 weeks old male CD-1 mice were dosed intravenously in a vehicle consisting of 10% dimethylacetamide, 40% PEG-400, […], and 30% water with experimental compounds and the forebrains were harvested 15 minutes […] by decapitation. The brain samples were immediately snap-frozen and stored at −80° C. On the following day, the dosed brain samples were thawed on ice for 15-20 minutes followed by homogenization using Polytron for 10 seconds in cold homogenization buffer composed of 50 mM KH2PO4 (pH adjusted to 7.4 with KOH), 1 mM EDTA, 0.005% Triton X 100 and protease inhibitor cocktail (Sigma Aldrich). The crude homogenates were further homogenized using a Dounce homogenizer and the homogenized membrane aliquots from all animals were flash-frozen and stored at −80° C. until further use. The whole homogenization process was performed on ice.
For determining occupancy, the membrane homogenates were first thawed on ice and then needle-homogenized using a 25 gauge needle. The homogenized membrane (6.4 mg/ml) was added to a 96-well plate followed by addition of ^3H Ro 25-6981 (6 nM). […] The filter plates were dried at 50° C. for 20 mins, incubated with microscint 20 for 10 minutes and read on TopCount (Perkin Elmer). […] Non-specific binding was determined using 10 μM Ro 25-6981 added to the wells containing membrane homogenates from vehicle-dosed animals. […]

mice = test: Mouse Forced Swim Test (mFST); assay type: in vivo; conditions: 1 mg/Kg i.v., 15 min before swim session, 6 min test
Protocol: Mouse Forced Swim Test (mFST).
Forced Swim Test (FST) is an animal model used to assess antidepressant compounds in preclinical studies. The FST was performed similar to the method of Porsolt et al. with modifications (Porsolt R D, Bertin A, Jalfre M. Behavioral despair in mice: a primary screening test for antidepressants. Arch Int Pharmacodyn Thér 1977; 229:327-36). In this paradigm, mice are forced to swim in an inescapable cylinder filled with water. Under these conditions, mice will initially try to escape and eventually develop immobility behavior; this behavior is interpreted as a passive stress-coping strategy or depression-like behavior. […] The duration of immobility was evaluated during the total 6 min of the test and expressed as duration (sec) of immobility. […] All testing sessions were recorded with a video camera (Sony Handicam, Model: DCR—HC38E; PAL) and scoring was done using the Forced Swim Scan, Version 2.0 software (Clever Systems Inc., Reston, Va., USA; see Hayashi E, Shimamura M, Kuratani K, Kinoshita M, Hara H. Automated experimental system capturing three behavioral components during murine forced swim test. Life Sci. 2011 Feb. 28; 88(9-10):411-7 and Yuan P, Tragon T, Xia M, Leclair C A, Skoumbourdis A P, Zheng W, Thomas C J, Huang R, Austin C P, Chen G, Guitart X. Phosphodiesterase 4 inhibitors enhance […] in rodents. […]

Sequence of NR2B-subtype NMDA receptors (Q00960 27-1482, other chains not shown): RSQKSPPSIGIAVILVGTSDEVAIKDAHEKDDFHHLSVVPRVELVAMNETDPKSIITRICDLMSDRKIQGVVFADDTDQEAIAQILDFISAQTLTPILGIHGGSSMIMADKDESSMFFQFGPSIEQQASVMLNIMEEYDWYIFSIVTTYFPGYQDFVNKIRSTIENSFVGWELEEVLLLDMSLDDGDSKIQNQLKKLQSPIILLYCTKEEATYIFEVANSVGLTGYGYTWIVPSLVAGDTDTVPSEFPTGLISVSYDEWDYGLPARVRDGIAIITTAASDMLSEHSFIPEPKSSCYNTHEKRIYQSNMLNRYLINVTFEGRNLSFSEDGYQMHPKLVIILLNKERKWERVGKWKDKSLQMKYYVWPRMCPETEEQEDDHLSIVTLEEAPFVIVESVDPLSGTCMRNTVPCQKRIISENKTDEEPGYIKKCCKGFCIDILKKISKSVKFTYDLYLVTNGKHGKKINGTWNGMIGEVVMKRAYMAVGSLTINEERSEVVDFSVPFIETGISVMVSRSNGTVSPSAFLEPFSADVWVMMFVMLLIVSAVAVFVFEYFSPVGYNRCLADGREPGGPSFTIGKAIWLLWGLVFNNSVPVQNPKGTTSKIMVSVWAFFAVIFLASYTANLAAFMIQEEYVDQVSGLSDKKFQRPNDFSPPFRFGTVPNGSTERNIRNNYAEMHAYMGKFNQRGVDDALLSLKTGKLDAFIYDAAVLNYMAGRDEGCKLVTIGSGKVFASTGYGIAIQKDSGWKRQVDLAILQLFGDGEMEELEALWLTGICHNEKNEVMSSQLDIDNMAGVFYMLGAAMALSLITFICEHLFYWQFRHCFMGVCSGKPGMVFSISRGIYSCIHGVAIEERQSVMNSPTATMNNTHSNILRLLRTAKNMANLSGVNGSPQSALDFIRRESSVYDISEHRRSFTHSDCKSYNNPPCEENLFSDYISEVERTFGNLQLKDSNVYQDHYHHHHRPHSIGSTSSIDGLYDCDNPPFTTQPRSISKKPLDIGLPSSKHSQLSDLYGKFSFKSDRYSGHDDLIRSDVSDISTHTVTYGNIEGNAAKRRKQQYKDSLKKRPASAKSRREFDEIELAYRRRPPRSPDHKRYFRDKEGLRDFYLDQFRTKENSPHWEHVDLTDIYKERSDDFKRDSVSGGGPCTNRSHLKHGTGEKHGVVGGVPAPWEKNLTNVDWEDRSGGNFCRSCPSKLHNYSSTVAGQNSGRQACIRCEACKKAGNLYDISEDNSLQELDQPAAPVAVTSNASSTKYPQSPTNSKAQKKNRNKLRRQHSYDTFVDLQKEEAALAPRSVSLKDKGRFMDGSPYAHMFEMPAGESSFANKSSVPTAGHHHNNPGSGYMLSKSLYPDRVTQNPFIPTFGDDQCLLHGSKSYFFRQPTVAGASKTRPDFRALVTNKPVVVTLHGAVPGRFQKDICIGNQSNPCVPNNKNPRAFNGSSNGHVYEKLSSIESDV

| Structure (SMILES) | Ki ([1]; read-out: NR2B Binding Ki) | Ki ([1]; read-out: binding Ki) | occupancy of brain-resident NR2B-subtype receptors (in words) (NR2B-subtype receptors) | immobility time (mice) |
| --- | --- | --- | --- | --- |
| O=C1C(N2CCC(c3ccc(O)cc3)CC2)CCN1Cc1ccc(F)cc1 (racemic) [Example 1, 1-(4-Fluorobenzyl)-3-(4-(4-hydroxyphenyl)piperidin-1-yl)pyrrolidin-2-one] | 3 nM | 4 nM | occupies brain-resident NR2B-subtype receptors | – |
| Cc1ccc(CN2CC[C@@H](N3CC[C@@H](c4ccc(O)cc4)[C@H](F)C3)C2=O)cc1 [Example 46, P-4, (R)-3-((3S,4S)-3-fluoro-4-(4-hydroxyphenyl)piperidin-1-yl)-1-(4-methylbenzyl)pyrrolidin-2-one] | – | – | – | statistically significant decrease in immobility time |
